According to PubChem BioAssay (NCI):
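The concentration for 50% growth inhibition is given as GI50. TGI denotes the concentration required for complete inhibition of growth.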

Legend:
Experiment in all cases: DTP human tumour cell line panel, 384-well format
MDA-MB-468 breast = test system: MDA-MB-468 breast
KM12 colon = test system: KM12 colon
NCI-H460 NSCLC = test system: NCI-H460 NSCLC
HCT-15 colon = test system: HCT-15 colon
SK-MEL-28 melanoma = test system: SK-MEL-28 melanoma
BT-549 breast = test system: BT-549 breast
HS 578T breast = test system: HS 578T breast
UACC-62 melanoma = test system: UACC-62 melanoma
HCC-2998 colon = test system: HCC-2998 colon
OVCAR-3 ovarian = test system: OVCAR-3 ovarian
EKVX NSCLC = test system: EKVX NSCLC
SK-MEL-5 melanoma = test system: SK-MEL-5 melanoma
MOLT-4 leukemia = test system: MOLT-4 leukemia
RXF 393 renal = test system: RXF 393 renal
U251 glioblastoma = test system: U251 glioblastoma
NCI-H522 lung = test system: NCI-H522 lung
786-0 renal = test system: 786-0 renal
SF-268 CNS = test system: SF-268 CNS
ACHN renal = test system: ACHN renal
HT29 colon = test system: HT29 colon
MCF7 breast = test system: MCF7 breast
HCT-116 colon = test system: HCT-116 colon
RPMI-8226 leukemia = test system: RPMI-8226 leukemia
UACC-257 melanoma = test system: UACC-257 melanoma
SN12C renal = test system: SN12C renal
SW-620 colon = test system: SW-620 colon
PC-3 prostate = test system: PC-3 prostate
OVCAR-4 ovarian = test system: OVCAR-4 ovarian
NCI-H226 lung = test system: NCI-H226 lung
MDA-MB-231 breast = test system: MDA-MB-231 breast
T-47D breast = test system: T-47D breast
MALME-3M melanoma = test system: MALME-3M melanoma
NCI/ADR-RES ovarian = test system: NCI/ADR-RES ovarian
SNB-75 CNS = test system: SNB-75 CNS
CAKI-1 renal = test system: CAKI-1 renal
CCRF-CEM leukemia = test system: CCRF-CEM leukemia
M14 melanoma = test system: M14 melanoma
SF-539 CNS = test system: SF-539 CNS
HL-60(TB) leukemia = test system: HL-60(TB) leukemia
SF-295 CNS = test system: SF-295 CNS
TK-10 renal = test system: TK-10 renal
OVCAR-8 ovarian = test system: OVCAR-8 ovarian
IGROV1 ovarian = test system: IGROV1 ovarian
HOP-92 NSCLC = test system: HOP-92 NSCLC
SK-OV-3 ovarian = test system: SK-OV-3 ovarian
HOP-62 NSCLC = test system: HOP-62 NSCLC
A549 NSCLC = test system: A549 NSCLC
LOX IMVI melanoma = test system: LOX IMVI melanoma
MDA-MB-435 melanoma = test system: MDA-MB-435 melanoma
UO-31 renal = test system: UO-31 renal
K-562 leukemia = test system: K-562 leukemia
NCI-H322M lung = test system: NCI-H322M lung
DU-145 prostate = test system: DU-145 prostate
NCI-H23 lung = test system: NCI-H23 lung
A498 renal = test system: A498 renal
SNB-19 CNS = test system: SNB-19 CNS
COLO 205 colon = test system: COLO 205 colon
OVCAR-5 ovarian = test system: OVCAR-5 ovarian

For `Cc1ccc(-n2nc(C(C)(C)C)cc2NC(=O)NCc2cc(F)ccc2Oc2ccc3c(cnn3CCO)c2)cc1`, the GI50 (MDA-MB-468 breast) was 4.56 µM, the TGI (MDA-MB-468 breast) was 15 µM and the GI50 (KM12 colon) was 1560 nM. For the same compound, the TGI (KM12 colon) was 11.9 µM, the GI50 (NCI-H460 NSCLC) was 6.4 µM and the TGI (NCI-H460 NSCLC) was 20.6 µM. For the same compound, the GI50 (HCT-15 colon) was 5.14 µM, the TGI (HCT-15 colon) was over 100 µM and the GI50 (SK-MEL-28 melanoma) was 1260 nM. It also gave a TGI (SK-MEL-28 melanoma) of 4.32 µM, a GI50 (BT-549 breast) of 4.9 µM and a TGI (BT-549 breast) of 27.2 µM. It also gave a GI50 (HS 578T breast) of 2630 nM, a TGI (HS 578T breast) of 15.6 µM and a GI50 (UACC-62 melanoma) of 665 nM. For the same compound, the TGI (UACC-62 melanoma) was 5.74 µM, the GI50 (HCC-2998 colon) was 3.47 µM and the TGI (HCC-2998 colon) was 13.2 µM. It also gave a GI50 (OVCAR-3 ovarian) of 8.85 µM, a TGI (OVCAR-3 ovarian) of 24.3 µM and a GI50 (EKVX NSCLC) of 4.58 µM. The TGI (EKVX NSCLC) was 27.7 µM, the GI50 (SK-MEL-5 melanoma) was 1060 nM and the TGI (SK-MEL-5 melanoma) was 6.63 µM. For the same compound, the GI50 (MOLT-4 leukemia) was 1900 nM, the TGI (MOLT-4 leukemia) was 5.02 µM and the GI50 (RXF 393 renal) was 3.38 µM. For the same compound, the TGI (RXF 393 renal) was 14.5 µM, the GI50 (U251 glioblastoma) was 10.3 µM and the TGI (U251 glioblastoma) was over 100 µM. For the same compound, the GI50 (NCI-H522 lung) was 3.91 µM, the TGI (NCI-H522 lung) was 17.1 µM and the GI50 ([…]-0 renal) was 4.93 µM. For the same compound, the TGI (786-0 renal) was over 100 µM, the GI50 (SF-268 CNS) was 45.5 nM and the TGI (SF-268 CNS) was 1620 nM. It also gave a GI50 (ACHN renal) of 3.28 µM, a TGI (ACHN renal) of 62.9 µM and a GI50 (HT29 colon) of 1860 nM. The TGI (HT29 colon) was 13.8 µM, the GI50 (MCF7 breast) was 2700 nM and the TGI (MCF7 breast) was 14.3 µM. The GI50 (HCT-116 colon) was 3.13 µM, the TGI (HCT-116 colon) was 16 µM and the GI50 (RPMI-8226 leukemia) was 4.07 µM. The TGI (RPMI-8226 leukemia) was 32 µM, the GI50 (UACC-257 melanoma) was 1870 nM and the TGI (UACC-257 melanoma) was 5.7 µM. The GI50 (SN12C renal) was 3.94 µM, the TGI (SN12C renal) was 33 µM and the GI50 (SW-620 colon) was 10.5 µM. It also gave a TGI (SW-620 colon) of over 100 µM, a GI50 (PC-3 prostate) of 6.72 µM and a TGI (PC-3 prostate) of 53.1 µM. The GI50 (OVCAR-4 ovarian) was 12.5 µM, the TGI (OVCAR-4 ovarian) was 31.8 µM and the GI50 (NCI-H226 lung) was 440 nM. For the same compound, the TGI (NCI-H226 lung) was 13.3 µM, the GI50 (MDA-MB-231 breast) was 3.17 µM and the TGI (MDA-MB-231 breast) was over 100 µM. The GI50 (T-47D breast) was 1820 nM, the TGI (T-47D breast) was 8.64 µM and the GI50 (MALME-3M melanoma) was 357 nM. For the same compound, the TGI (MALME-3M melanoma) was 1490 nM, the GI50 (NCI/ADR-RES ovarian) was 7.83 µM and the TGI (NCI/ADR-RES ovarian) was 66.4 µM. It also gave a GI50 (SNB-75 CNS) of 12.2 µM, a TGI (SNB-75 CNS) of 89 µM and a GI50 (CAKI-1 renal) of 3.07 µM. For the same compound, the TGI (CAKI-1 renal) was over 100 µM, the GI50 (CCRF-CEM leukemia) was 4.51 µM and the TGI (CCRF-CEM leukemia) was 16.7 µM. The GI50 (M14 melanoma) was 427 nM, the TGI (M14 melanoma) was 3.11 µM and the GI50 (SF-539 CNS) was 2720 nM. For the same compound, the TGI (SF-539 CNS) was 28.6 µM, the GI50 (HL-60(TB) leukemia) was 1670 nM and the TGI (HL-60(TB) leukemia) was 4.48 µM. The GI50 (SF-295 CNS) was 18 µM, the TGI (SF-295 CNS) was over 100 µM and the GI50 (TK-10 renal) was 13.9 µM. It also gave a TGI (TK-10 renal) of 87.4 µM, a GI50 (OVCAR-8 ovarian) of 13 µM and a TGI (OVCAR-8 ovarian) of over 100 µM. For the same compound, the GI50 (IGROV1 ovarian) was 2390 nM, the TGI (IGROV1 ovarian) was 18 µM and the GI50 (HOP-92 NSCLC) was 4.1 µM. For the same compound, the TGI (HOP-92 NSCLC) was 29.8 µM, the GI50 (SK-OV-3 ovarian) was 9.15 µM and the TGI (SK-OV-3 ovarian) was over 100 µM. For the same compound, the GI50 (HOP-62 NSCLC) was 4.67 µM, the TGI (HOP-62 NSCLC) was 27.1 µM and the GI50 (A549 NSCLC) was 7.81 µM. For the same compound, the TGI (A549 NSCLC) was over 100 µM, the GI50 (LOX IMVI melanoma) was 1620 nM and the TGI (LOX IMVI melanoma) was 4.41 µM. For the same compound, the GI50 (MDA-MB-435 melanoma) was 2740 nM, the TGI (MDA-MB-435 melanoma) was 89.2 µM and the GI50 (UO-31 renal) was 3.16 µM. The TGI (UO-31 renal) was 20.8 µM, the TGI (K-562 leukemia) was 25.8 nM and the GI50 (NCI-H322M lung) was 6.36 µM. For the same compound, the TGI (NCI-H322M lung) was over 100 µM, the GI50 (DU-145 prostate) was 15 µM and the TGI (DU-145 prostate) was over 100 µM. It also gave a GI50 (NCI-H23 lung) of 1780 nM, a TGI (NCI-H23 lung) of 6.08 µM and a GI50 (A498 renal) of 8.98 µM. For the same compound, the TGI (A498 renal) was 71.8 µM, the GI50 (SNB-19 CNS) was 29.1 µM and the TGI (SNB-19 CNS) was over 100 µM. For the same compound, the GI50 (COLO 205 colon) was 1260 nM, the TGI (COLO 205 colon) was 12.3 µM and the GI50 (OVCAR-5 ovarian) was 4.52 µM. For the same compound, the TGI (OVCAR-5 ovarian) was 50.9 µM.
